Experimental data reported in ChEMBL document CHEMBL6114941, “Recent progress on small molecule TLR4 antagonist against triple-negative breast cancer progression and complications” (2024).

How the values were obtained:
Type in all cases: functional
Ehrlich = assay: Antitumor activity against mouse Ehrlich cells implanted in BALB/c nude mouse assessed as increase in apoptotic cell death at 5 mg/kg, ip administered once daily for 7 days relative to control; settings: time 7 day
MDA-MB-435 [1] = assay: Antiproliferative activity against human MDA-MB-435 cells assessed as inhibition of cell growth at 10 uM in presence of paclitaxel relative to control
MDA-MB-435 [2] = assay: Antiproliferative activity against human MDA-MB-435 cells assessed as inhibition of cell growth at 1 nM relative to control

Work on `COc1cc(/C=C/C(=O)/C=C/c2ccc(O)c(OC)c2)ccc1[O-].[Na+]` yielded an Activity (Ehrlich) of 30%.
`CCc1ccc(/C=C/C(=O)/C=C(O)/C=C/c2ccc(OC)c(O)c2OC)c(CC)c1O` showed an inhibition at 10 µM (MDA-MB-435 [1]) of 45%.
`CC(=O)O[C@H]1C(=O)[C@@]2(C)[C@H]([C@H](OC(=O)c3ccccc3)[C@]3(O)C[C@H](OC(=O)[C@H](O)[C@@H](NC(=O)c4ccccc4)c4ccccc4)C(C)=C1C3(C)C)[C@]1(OC(C)=O)CO[C@@H]1C[C@@H]2O` [PACLITAXEL] showed an inhibition at 0.001 µM (MDA-MB-435 [2]) of 97%.
